Laboratory results published in a melting point compilation (Tetko et al.; mined from patent text by program, amines drawn as free bases though some values may be those of a salt).

melting point [°C]	SMILES
254 to 255	O=C(c1cc2ccccc2[nH]1)N1CCOCC1Cl (stereo not given)
147 to 148	N#CC(=NO)c1cccc(C(=O)c2ccccc2)c1
66 to 69	CC(O)(c1nc2cc([N+](=O)[O-])ccc2s1)C(F)(F)F (stereo not given)
173 to 175	CC(=O)OCC(O)COc1ccc2nc(S(N)(=O)=O)sc2c1 (stereo not given)
145 to 146	CC(CC(O)(C(=O)O)C(F)(F)F)c1ccccc1 (stereo not given)
274 to 276	Nc1ncc2cc(-c3c(Cl)cccc3Cl)c(=O)n(Cc3c(Cl)cccc3Cl)c2n1
99 to 100	CCC(O)(CC(N)=O)c1ccc(Cl)c(Cl)c1 (stereo not given)
223 to 224	CCn1ncc2c(NCC3CCCCC3)c3cc(O)ccc3nc21
207 to 208	CCOc1cc(S(=O)(=O)CC)ccc1-c1nc2ncccc2[nH]1
111 to 113	COC(=O)c1ccc(C(=O)c2ccccc2)[nH]1
140 to 142	COc1ccc(I)cc1C=O
141 to 145	N=C(N)Nc1nc(CSCCNc2ncccc2C(=O)O)cs1
134 to 136	CCOC(=O)c1c(-c2ccc(C)cc2)c2ccncc2c(=O)n1C
212 to 213	CCOC(=O)C1=C(C)Nc2ccn(CCCN(C)C)c(=O)c2C1c1cccc([N+](=O)[O-])c1 (stereo not given)
130 to 131	CC(C)c1nn(-c2ccc([N+](=O)[O-])cn2)cc1CCCO
170	CC(C)c1ccc(S(=O)(=O)n2c(Cc3cccc(C(=O)O)c3)cc3cc(Cl)ccc32)cc1
158 to 161	CON=C(C)CCCn1c(C)nc2c(N)nc3ccccc3c21
132 to 133	CC(C)CCc1ccc(C=CC(O)=S)cc1
214	COc1cc(C(=O)c2nc(N)c3ccccn23)ccc1[N+](=O)[O-]
90 to 91	CN(C)C(=O)c1cc(-c2ncc(C(F)(F)F)cc2Cl)ccc1Cl
138 to 140	CSc1cc2ncnc(Cl)c2s1
124	Cc1ccc(C2(O)CCC(=O)N2C)cc1S(N)(=O)=O (stereo not given)
160 to 162	CCOC(=O)c1[nH]c2ccc(Cl)cc2c1Sc1ccccc1
98 to 99	O=C(O)CCC1CCN(C(=O)OCc2ccc([N+](=O)[O-])cc2)CC1

melting point [°C]	SMILES
198 to 200	CCOC(=O)c1cccc2c1Cc1c-2[nH]c2ccc(Br)cc12
166 to 167	CCOC(=O)N(CC(=O)O)C(=O)c1c(OCC(F)(F)F)ccc2c(C(F)(F)F)c(OC)ccc12
57 to 61	CCOC(=O)CCCCCCOc1ccc(OCc2ccccc2)cc1
73	CCOc1ccc(O)c(F)c1F
86 to 87	CCCCCCCCCCCCn1nnc(CCC(=O)Nc2ccc(F)cc2F)n1
172 to 182	Nc1sc(CC(=O)O)cc1C(=O)c1ccccc1Cl
82 to 84	CCOC(=O)Cc1ccc2c(c1)CC(NC(C)=O)C2 (stereo not given)
165 to 167	COC(COC(=O)C1=C(C)NC2=C(C(=O)CNC2)C1c1cccc(Cl)c1)c1ccccc1 (stereo not given)
172 to 174	CCCCc1cc(C(N)=O)ccc1OCCCNc1cnn(C(C)C)c(=O)c1Cl
88 to 89	CCOC(=O)c1cccc2oc(C=O)cc12
174 to 179	CCn1c(Oc2cccc(N3CCC4(CC3)OCCO4)c2)nnc1[C@@H](C)NS(=O)(=O)c1ccc(Cl)c(Cl)c1
216 to 217	O=C(NCc1ccccc1)c1cn2c(=O)n(Cc3ccc(Cl)c(Cl)c3)c(=O)cc2s1
56 to 57	C=CCc1c(OC)cc(C(=O)O)cc1OC
199 to 203	CCCCc1ncc(/C=C(\Cc2cccs2)C(=O)O)n1Cc1ccc(C=CC(=O)O)cc1
206	Cc1ccc2c(c1)c(Cl)c(C#N)c(=O)n2Cc1ccc(F)cc1
162 to 163	COCn1ccnc1C(O)(c1ccc(Cl)cc1)c1ccc(C(C)(C)C)cc1 (stereo not given)
115 to 116	OCc1cnc(-c2ccc(Cl)cc2)o1
248	O=C(O)c1ccccc1NCCNc1ccccc1C(=O)O
144 to 146	CC(C)c1csc(/C=C/c2cccc(NC(=O)Cc3ccccc3CC(=O)O)c2)n1
265 to 266	CC[C@@]12C/C(=C\c3ccccc3)C(=O)C[C@H]1CCc1cc(O)ccc12
98 to 99	Cc1ccc(C(=O)NCCc2ccccn2)c(Nc2ccc3[nH]ncc3c2)n1
159 to 162	O=c1c2cccc3c2n(c(=O)n1CC(O)CO)-c1cc(C(F)(F)F)ccc1S3 (stereo not given)
151 to 152	CCC(=O)Nc1cnc2ccccc2c1Cl

The next lines start with the compound.

SMILES	melting point [°C]
COc1ccc(/C=C/C(=O)N2CCc3ccccc32)cc1OC	118 to 120
CC(C)(C)OC(=O)NCCCCC(=O)Nc1ccc(OCc2ccccc2)c(C(=O)NCCC(=O)OCc2ccccc2)c1	97 to 99
COc1cc2sc(=O)n(C(C)=O)c2cc1OC	164 to 165
COc1cc2c(cc1OC)NC(=O)N(CCCN(C)CCCS(=O)(=O)c1ccccc1)CC2	118 to 121
CCCOc1ccc2c(c1)C(c1ccccc1OCCC)C(C(=O)O)C2c1ccc2c(c1)OCO2 (stereo not given)	179 to 180
COc1cc2c(cc1Cl)CCN(C)CC2c1ccc(I)cc1 (stereo not given)	130 to 132
O=c1[nH]c(-c2ccc(F)cc2)nc2ccc(CN3CCOCC3)cc12	322 to 323
CN1CCc2cc3ccccc3n2CC1	59 to 60
CCCCOc1c(CN2C(=O)c3ccccc3C2=O)n(CC2CC2)c(=O)c2ccc(OCc3ccccc3)cc12	127 to 128
COCCN(CCOC)C1CCN(c2ccc(NC(=O)c3cnn(-c4ccc(Cl)cc4)c3C)cc2C#N)CC1	152
COc1cc(C(C)=O)ccc1OCCCN1CCC(c2noc3ccccc23)CC1	102 to 104
c1ccc(C(c2ccccc2)N2CCN(CCOc3ccccc3-c3nc4ccccc4s3)CC2)cc1	67 to 72
NC(Cc1ccccc1)C(O)C(F)(F)F (stereo not given)	110 to 111
CCOC(=O)[C@@H]1[C@H](C)OC(=O)[C@@H]1NC(C)=O	165 to 167
Cn1cc(C(=O)NC(=O)N2CC2C#N)c([N+](=O)[O-])n1 (stereo not given)	58 to 64
CCCCCCNC(=O)C#CBr	64 to 64.3
COc1ccc(Cn2cc3nc(Cl)nc(-c4c(F)cccc4OC)c3n2)cc1	180 to 181
Cc1cccc(C)c1NC(=O)NC1(c2cccs2)CCCCC1	220 to 222
COc1ccccc1C1(c2ccc(N(C)C)cc2)OC(=O)c2cc(N(C)C)ccc21 (stereo not given)	215 to 216
CC(=O)NC1(c2ccc(CN3CCN(c4ccc(F)cc4)CC3)cc2)CC1	124 to 126
COc1cc(OC)nc(SC)n1	50 to 52
O=c1c(Br)c(OCc2ccc(F)cc2)ccn1Cc1cccc(F)c1	180 to 183
ClCOc1ccc(-c2ccccc2)cc1	67 to 70
CC(CCC(=O)NCCCCCC(=O)NCCCCCO)C1CCC2C3C(O)CC4CC(O[Si](C)(C)C(C)(C)C)CCC4(C)C3CC(O)C12C (stereo not given)	146 to 148
Cc1ccc(-c2nc(C(F)(F)F)nc(Cl)c2-c2ccccc2)cc1	97 to 100
COc1cc(Nc2c(C#N)cnc3cc(C#CCN4CCN(C)CC4)sc23)c(Cl)cc1Cl	172 to 173
O=C(Nc1ccc(C2(O)CCCN(C(=O)OCc3ccccc3)C2)c(F)c1)OCc1ccccc1 (stereo not given)	137 to 139

SMILES	melting point [°C]
N#CN1CCC2(CC1)C(=O)c1cc(Cl)ccc1Sc1ccccc12	142
CC1(C)CCC(C)(C)c2cc(-c3cc4ccc(C(=O)O)cc4s3)c(Br)cc21	272 to 275
CCC1(C)CCN(C(=O)CN(C(=O)CNC(=O)Nc2cccc(C)c2)c2ccccc2)CC1	204
Cc1cccc(NC(=O)NC2N=C(c3ccccc3F)c3ccccc3N(Cc3ccccn3)C2=O)c1 (racemic)	215 to 216
COc1ccc([C@H]2CC[C@H](c3ccc(OC)c(OC)c3)O2)cc1OC (relative stereo)	114 to 115
CCOCc1nc2c(N)nc3ccccc3c2n1CC1(OCCS(C)(=O)=O)CCCCC1	159 to 161
O=C1c2cccc(NCCc3ccccc3)c2C(=O)c2cccc(NCCc3ccccc3)c21	205 to 207
CCOC(N)=C(C#N)C#N	233
O=C(NC[C@H]1CN(c2ccc3c(c2)CCCc2cn[nH]c2-3)C(=O)O1)C(F)F	147 to 150
Cc1oc(-c2ccccc2)nc1COc1ccc(CCc2nnn[nH]2)cc1	203 to 204
N#CCCCN(Cc1ccccc1)Cc1ccccc1	45 to 46
CCCCCCCCCCC(=O)Nc1ccn(C2OC(CO)C(O)C2O)c(=O)n1 (stereo not given)	146 to 150
c1ccc(CN2CC3CC2CN3C2=Nc3ccccc3Oc3ccccc32)cc1 (stereo not given)	70 to 72
CCOP(=O)(OCC)C(Nc1nocc1C)P(=O)(OCC)OCC	68 to 69
O=c1c2cnc3ccc(Cl)cc3c2on1-c1ccccc1	174
CC(C)(C)c1cc(C(=O)c2ccoc2)cc2c1OCC2(C)C	120 to 121
CN[C@@H]1Cc2cccc3[nH]c(=S)n(c23)C1	210 to 213
O=C1Nc2ccccc2C1=c1[nH]c(=O)c(=Cc2ccc(OCc3ccccc3)cn2)[nH]c1=O	> 300
Cc1nc2cc(Nc3ncc4ccc(-c5cccc(S(=O)(=O)NC(C)(C)C)c5)n4n3)ccc2o1	212 to 214
NS(=O)(=O)c1ccc(-c2cc(-c3nc(-c4ccc(F)c(F)c4)cc(C(F)(F)F)n3)ccn2)s1	281
O=C(CC1CC(OC(=O)c2ccccc2)CCC1=O)c1ccccc1 (stereo not given)	107 to 108
COCCOc1cc(NS(=O)(=O)c2ccccn2)c2[nH]c(C(=O)NCC(CN3CCSCC3)SCc3ccccc3)cc2c1 (stereo not given)	160 to 161
Cc1cc(NC(=O)C(C)(O)COc2cccc(F)c2F)ccc1[N+](=O)[O-] (stereo not given)	68 to 73
Cc1ccc2c(c1)c(-c1ccc(F)cc1)c(C)n2-c1ccncc1	172 to 174
Cn1cccc1CN1CCCC1=O	44.5 to 47.5
Cc1nnc(-c2ccc3occ(-c4ccc(S(=O)(=O)C(C)C)cc4)c3c2)o1	229 to 230
